# Values quoted from earlier work as cited in PMC8711005, “Phase 1 Dose-Escalation Study of Plasma Kallikrein Inhibitor THR-149 for the Treatment of Diabetic Macular Edema” (Translational Vision Science & Technology, 2021).
# Test system: subjects with center-involved DME
# Conditions: single IVT injection, 14 subjects with center-involved DME, Month 3
# Text: A recent phase I study of another PKal inhibitor, KVD001, enrolled 14 subjects with center-involved DME who had received prior anti-VEGF treatment.[30] Baseline demographics were similar to those in the current study, with some notable differences in baseline ocular characteristics, including higher baseline BCVA and lower CST relative to those enrolled in our study. The maximum BCVA increase following a single IVT injection of KVD001 was 4.1 ETDRS letters at Month 3, with a corresponding mean reduction of 23 µm in CST. Rescue treatment was allowed; however, the frequency and imputation method ...
smiles,measurement,value
CCOc1ccc(C[C@@H](NC(=O)c2ccccc2)C(=O)N[C@@H](Cc2ccccc2)C(=O)NCc2ccc(CN)cc2)cc1 [KVD001],Maximum BCVA increase,4.1 ETDRS letters
same,Mean reduction in CST,23 µm
